The source of these data is the NIST ThermoML archive (doi:10.1016/j.jct.2010.01.009).

“And” between values parts separate entries of the source, which are not always exact repeats. Equal entries are not always repeated. ± gives the expanded uncertainty stated by the source.

For the data set the following is noted: Crystal, Calculated from knudsen effusion weight loss.

For orientation: vapor or sublimation pressure means the pressure of vapour in equilibrium with the condensed phase. Take `Cc1ccc(-n2cccc2)cc1` [1-(4-methylphenyl)-1H-pyrrole]: the “vapor or sublimation pressure” value (283.11 K) was 0.00014 ± 7e-06 kPa and 0.000137 ± 7e-06 kPa; the “vapor or sublimation pressure” value (285.13 K) was 0.000168 ± 8e-06 kPa and 0.000169 ± 8e-06 kPa and 0.000174 ± 9e-06 kPa; the “vapor or sublimation pressure” value (287.12 K) was 0.00023 ± 1.2e-05 kPa and 0.000224 ± 1.1e-05 kPa and 0.00022 ± 1.1e-05 kPa; the “vapor or sublimation pressure” value (289.13 K) was 0.000278 ± 1.4e-05 kPa and 0.000282 ± 1.4e-05 kPa and 0.000286 ± 1.4e-05 kPa; the “vapor or sublimation pressure” value (291.14 K) is 0.000362 ± 1.8e-05 kPa and 0.000355 ± 1.8e-05 kPa; the “vapor or sublimation pressure” value (293.13 K) is 0.000468 ± 2.3e-05 kPa and 0.000459 ± 2.3e-05 kPa and 0.000451 ± 2.3e-05 kPa. Moreover, the “vapor or sublimation pressure” value reads like this: (295.18 K) 0.000579 ± 2.9e-05 kPa and 0.000571 ± 2.9e-05 kPa and 0.000558 ± 2.8e-05 kPa; (297.15 K) 0.000732 ± 3.7e-05 kPa and 0.000734 ± 3.7e-05 kPa; (299.16 K) 0.000948 ± 4.7e-05 kPa and 0.000927 ± 4.6e-05 kPa and 0.000925 ± 4.6e-05 kPa.
In the case of `c1ccc(-n2cccc2)cc1` [1-phenylpyrrole], the “vapor or sublimation pressure” value is, setting by setting: (271.14 K) 0.000151 ± 8e-06 kPa and 0.000147 ± 7e-06 kPa and 0.000143 ± 7e-06 kPa; (273.15 K) 0.000191 ± 1e-05 kPa and 0.00019 ± 1e-05 kPa and 0.000185 ± 9e-06 kPa; (275.17 K) 0.000255 ± 1.3e-05 kPa and 0.000247 ± 1.2e-05 kPa and 0.000241 ± 1.2e-05 kPa; (277.06 K) 0.000336 ± 1.7e-05 kPa and 0.000311 ± 1.6e-05 kPa and 0.00033 ± 1.7e-05 kPa; (279.15 K) 0.000426 ± 2.1e-05 kPa and 0.000414 ± 2.1e-05 kPa and 0.000397 ± 2e-05 kPa; (281.11 K) 0.000537 ± 2.7e-05 kPa and 0.000525 ± 2.6e-05 kPa. The “vapor or sublimation pressure” value by setting is: (283.19 K) 0.000682 ± 3.4e-05 kPa and 0.000678 ± 3.4e-05 kPa and 0.000651 ± 3.3e-05 kPa; (285.24 K) 0.000905 ± 4.5e-05 kPa and 0.000887 ± 4.4e-05 kPa; (287.13 K) 0.001123 ± 0.00012 kPa and 0.001111 ± 0.00011 kPa and 0.00106 ± 0.00011 kPa.
